Test results: patent publication US20230151034A1 (COCRYSTAL PHARMA, INC., priority 2020, published 2023)
Read-outs that look alike come from different tables or passages of the source.

Experiments:
[1] = biological target: Norwalk GGI.1 Norovirus protease (Norovirus, UniProt Q83883); experiment: Noro-Norwalk FRET protease assay (Norwalk GGI.1); type: biochemical, Norwalk virus
Experimental: Viral protease assays: The antiviral activities of inhibitors were determined by FRET (Fluorescence Resonance Energy Transfer) assay. Purified viral protease was incubated with the protease substrate peptide (Edans-DFHLQ/GP-Dabcyl) and inhibitor, and IC50 values were subsequently determined by the fluorescence signals.
The Noro-Norwalk FRET protease assay was performed in 50 mM HEPES-Na pH 8, 50 mM NaCl, 0.4 mM EDTA, 4% glycerol, and 6 mM DTT. A self-quenching peptide substrate [5-FAM]-[…]-[TAMRA] was custom synthesized by Anaspec. Compounds were diluted in 3-fold serial dilutions to final concentrations of 200 μM to 10.2 nM. Noro protease was added to a final concentration of 1-7 μM, depending on the enzyme activity level, and the peptide substrate was added to a final concentration of 10 μM. The assay was incubated 90 minutes at 37° C. and read in a Perkin Elmer Envision with excitation at 473 nm and emission measurement at 519 nm.

[2] = biological target: SARS2 protease (Severe acute respiratory syndrome coronavirus 2, UniProt P0DTD1); experiment: SARS-CoV-2 protease inhibition assay (SARS2 FRET protease assay); type: biochemical
Outline: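 SARS-CoV-2 protease (25 nM) was incubated for 30 min at 30 °C with 1.3 μM quenched 5-FAM/TAMRA peptide substrate and compound (3-fold dilutions, 20 μM–1.0 nM). The buffer was 20 mM HEPES-Na pH 7, 120 mM NaCl, 0.4 mM EDTA, 0.01% Triton, 5% glycerol and 4 mM DTT. Fluorescence was read at ex 473 and em 519 nm, and IC50 was derived.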

[3] = biological target: HuNV GGII.4 Norovirus protease (Norovirus GII.4 (human norovirus genogroup II genotype 4), UniProt P54634); experiment: Norovirus protease FRET assay (HuNV GGII.4); type: biochemical
[4] = Table C, FRET protease assay, read-out: Norwalk GGI.1 IC50
[5] = Table E, SARS-CoV-2 protease inhibition, read-out: IC50
[6] = Table C, FRET protease assay, read-out: HuNV GGII.4 IC50
[7] = Table D, FRET protease assay, read-out: Norwalk GGI.1 IC50
[8] = Table D, FRET protease assay, read-out: HuNV GGII.4 IC50

Chain of HuNV GGII.4 Norovirus protease (P54634 1009-1189): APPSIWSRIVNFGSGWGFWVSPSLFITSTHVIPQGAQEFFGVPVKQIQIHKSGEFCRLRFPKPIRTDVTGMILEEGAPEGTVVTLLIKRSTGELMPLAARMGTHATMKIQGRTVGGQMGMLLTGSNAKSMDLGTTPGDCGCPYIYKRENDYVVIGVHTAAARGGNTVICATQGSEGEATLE
Chain of Norwalk GGI.1 Norovirus protease (Q83883 1101-1281): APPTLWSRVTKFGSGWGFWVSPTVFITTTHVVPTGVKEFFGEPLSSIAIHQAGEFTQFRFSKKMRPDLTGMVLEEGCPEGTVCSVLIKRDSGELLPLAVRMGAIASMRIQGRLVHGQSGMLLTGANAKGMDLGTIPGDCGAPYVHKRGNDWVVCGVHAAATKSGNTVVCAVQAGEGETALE

## CCCCCN(C)C(=O)CC[C@H](NC(=O)[C@H](CC1CCCCC1)NC(=O)OCc1cccc(Cl)c1)C(O)P(=O)(OCC)OCC (stereo partly drawn) [Compound A9, 3-chlorobenzyl ((2S)-3-cyclohexyl-1-(((2S)-1-(diethoxyphosphoryl)-1-hydroxy-5-(methyl(pentyl)amino)-5-oxopentan-2-yl)amino)-1-oxopropan-2-yl)carbamate]
[1]; [4]
  IC50: 14 µM
[2]; [5]
  IC50: > 200 µM
[3]; [6]
  IC50: 154 µM

## CCOCCN(C)C(=O)CC[C@@H](C=O)NC(=O)[C@H](CC1CCCCC1)NC(=O)OCc1cccc(Cl)c1 [Compound A10, 3-chlorobenzyl ((S)-3-cyclohexyl-1-(((S)-5-((2-ethoxyethyl)(methyl)amino)-1,5-dioxopentan-2-yl)amino)-1-oxopropan-2-yl)carbamate]
[1]; [4]
  IC50: 3.6 µM
[2]; [5]
  IC50: 0.98 µM
[3]; [6]
  IC50: 16.9 µM

## CCOP(=O)(OCC)C(O)[C@H](CCC(=O)N(C)Cc1ccccc1)NC(=O)[C@H](CC1CCCCC1)NC(=O)OCc1cccc(Cl)c1 (stereo partly drawn) [Compound A13, 3-Chlorobenzyl ((2S)-1-(((2S)-5-(benzyl (methyl)amino)-1-(diethoxyphosphoryl)-1-hydroxy-5-oxopentan-2-yl)amino)-3-cyclohexyl-1-oxopropan-2-yl) carbamate]
[1]; [4]
  IC50: 166 µM
[2]; [5]
  IC50: > 200 µM
[3]; [6]
  IC50: > 200 µM

## CCOP(=O)(OCC)C(O)[C@H](CCC(=O)N(C)c1ccccc1)NC(=O)[C@H](CC1CCCCC1)NC(=O)OCc1cccc(Cl)c1 (stereo partly drawn) [Compound A14, 3-Chlorobenzyl ((2S)-3-cyclohexyl-1-(((2S)-1-(diethoxyphosphoryl)-1-hydroxy-5-(methyl (phenyl)amino)-5-oxopentan-2-yl)amino)-1-oxopropan-2-yl) carbamate]
[1]; [4]
  IC50: 50.9 µM
[2]; [5]
  IC50: > 200 µM
[3]; [6]
  IC50: 70.1 µM

## CCOP(=O)(OCC)C(O)[C@H](CCC(=O)N(C)CCc1ccccc1)NC(=O)[C@H](CC1CCCCC1)NC(=O)OCc1cccc(Cl)c1 (stereo partly drawn) [Compound A15, 3-Chlorobenzyl ((2S)-3-cyclohexyl-1-(((2S)-1-(diethoxyphosphoryl)-1-hydroxy-5-(methyl(phenethyl)amino)-5-oxopentan-2-yl)amino)-1-oxopropan-2-yl)carbamate]
[1]; [4]
  IC50: > 200 µM
[2]; [5]
  IC50: > 200 µM
[3]; [6]
  IC50: 139 µM

## CCNC(=O)NCCN(C)C(=O)CC[C@H](NC(=O)[C@H](CC1CCCCC1)NC(=O)OCc1cccc(Cl)c1)C(O)P(=O)(OCC)OCC (stereo partly drawn) [Compound A16, 3-Chlorobenzyl ((12S,15S)-16-cyclohexyl-12-((diethoxyphosphoryl)(hydroxy)methyl)-8-methyl-4,9,14-trioxo-3,5,8,13-tetraazahexadecan-15-yl)carbamate]
[1]; [4]
  IC50: 81.9 µM
[2]; [5]
  IC50: > 200 µM
[3]; [6]
  IC50: > 200 µM

## CN(Cc1ccccc1)C(=O)CC[C@@H](C=O)NC(=O)[C@H](CC1CCCCC1)NC(=O)OCc1cccc(Cl)c1 [Compound A18, 3-Chlorobenzyl ((S)-1-(((S)-5-(benzyl (methyl)amino)-1,5-dioxopentan-2-yl)amino)-3-cyclohexyl-1-oxopropan-2-yl) carbamate]
[1]; [4]
  IC50: 2.7 µM
[2]; [5]
  IC50: > 200 µM
[3]; [6]
  IC50: 14.5 µM

## CN(C(=O)CC[C@@H](C=O)NC(=O)[C@H](CC1CCCCC1)NC(=O)OCc1cccc(Cl)c1)c1ccccc1 [Compound A19, 3-Chlorobenzyl ((S)-3-cyclohexyl-1-(((S)-5-(methyl (phenyl)amino)-1,5-dioxopentan-2-yl)amino)-1-oxopropan-2-yl) carbamate]
[1]; [4]
  IC50: 1 µM
[2]; [5]
  IC50: 40.3 µM
[3]; [6]
  IC50: 3.3 µM

## CCOP(=O)(OCC)C(O)[C@H](CCC(=O)N(C)CCNS(=O)(=O)CC)NC(=O)[C@H](CC1CCCCC1)NC(=O)OCc1cccc(Cl)c1 (stereo partly drawn) [Compound A22]
[1]; [4]
  IC50: 143 µM
[2]; [5]
  IC50: 2.3 µM
[3]; [6]
  IC50: > 200 µM

## CN(CCc1cccc(Cl)c1)C(=O)CC[C@@H](CO)NC(=O)[C@H](CC1CCCCC1)NC(=O)OCc1cccc(Cl)c1 [Compound A24, 3-Chlorobenzyl ((S)-1-(((S)-5-((3-chlorophenethyl)(methyl)amino)-1-hydroxy-5-oxopentan-2-yl)amino)-3-cyclohexyl-1-oxopropan-2-yl)carbamate]
[1]; [4]
  IC50: > 200 µM
[2]; [5]
  IC50: > 200 µM
[3]; [6]
  IC50: 123 µM

## CCOCCOCCN(C)C(=O)CC[C@@H](C=O)NC(=O)[C@H](CC1CCCCC1)NC(=O)OCc1cccc(Cl)c1 [Compound A25, 3-Chlorobenzyl ((13S,16S)-17-cyclohexyl-13-formyl-9-methyl-10,15-dioxo-3,6-dioxa-9,14-diazaheptadecan-16-yl)carbamate]
[1]; [4]
  IC50: 17.2 µM
[2]; [5]
  IC50: > 200 µM
[3]; [6]
  IC50: 39.4 µM

## CCNC(=O)CN(C)C(=O)CC[C@@H](C=O)NC(=O)[C@H](CC1CCCCC1)NC(=O)OCc1cccc(Cl)c1 [Compound A27, 3-Chlorobenzyl ((S)-3-cyclohexyl-1-(((S)-5-((2-(ethylamino)-2-oxoethyl) (methyl)amino)-1,5-dioxopentan-2-yl)amino)-1-oxopropan-2-yl)carbamate]
[1]; [4]
  IC50: 2.7 µM
[2]; [5]
  IC50: 137 µM
[3]; [6]
  IC50: 11.3 µM

## CCOP(=O)(OCC)C(O)[C@H](CCC(=O)N(CC)CCc1ccccc1)NC(=O)[C@H](CC1CCCCC1)NC(=O)OCc1cccc(Cl)c1 (stereo partly drawn) [Compound A50, 3-Chlorobenzyl ((2S)-3-cyclohexyl-1-(((2S)-1-(diethoxyphosphoryl)-5-(ethyl(phenethyl)amino)-1-hydroxy-5-oxopentan-2-yl)amino)-1-oxopropan-2-yl)carbamate]
[1]; [4]
  IC50: 97.4 µM
[2]; [5]
  IC50: 9.7 µM
[3]; [6]
  IC50: 95.7 µM

## CCOP(=O)(OCC)C(O)[C@H](CCC(=O)N1CCOC(c2ccccc2)C1)NC(=O)[C@H](CC1CCCCC1)NC(=O)OCc1cccc(Cl)c1 (stereo partly drawn) [Compound A54, 3-Chlorobenzyl ((2S)-3-cyclohexyl-1-(((2S)-1-(diethoxyphosphoryl)-1-hydroxy-5-oxo-5-(2-phenylmorpholino)pentan-2-yl)amino)-1-oxopropan-2-yl)carbamate]
[1]; [4]
  IC50: 36.3 µM
[2]; [5]
  IC50: 19 µM
[3]; [6]
  IC50: 161 µM

## CN(CCc1ccccc1Cl)C(=O)CC[C@@H](C=O)NC(=O)[C@H](CC1CCCCC1)NC(=O)OCc1cccc(Cl)c1 [Compound A105, 3-Chlorobenzyl ((S)-1-(((S)-5-((2-chlorophenethyl)(methyl)amino)-1,5-dioxopentan-2-yl)amino)-3-cyclohexyl-1-oxopropan-2-yl)carbamate]
[1]; [4]
  IC50: 28.2 µM
[2]; [5]
  IC50: > 200 µM
[3]; [6]
  IC50: 155 µM

## CCCCCCCC1CCC/C=C/CC(C(=O)N(C)C)C[C@@H](C=O)NC(=O)C(CC(C)C)NC1=O (stereo partly drawn) [Compound B4]
[1]; [7]
  IC50: 149 µM
[2]; [5]
  IC50: 156 µM
[3]; [8]
  IC50: 149 µM

## CCCC1CCCC/C=C/CC(C(=O)N(C)Cc2ccc(OC)cc2OC)C[C@@H](C(O)P(=O)(OCC)OCC)NC(=O)[C@H](CC(C)C)NC1=O (stereo partly drawn) [Compound B25, Diethyl (((2S,5S,E)-7-((2,4-dimethoxybenzyl)(methyl)carbamoyl)-2-isobutyl-3,16-dioxo-15-propyl-1,4-diazacyclohexadec-9-en-5-yl)(hydroxy)methyl)phosphonate]
[1]
  IC50: 177 µM
[2]
  IC50: > 200 µM
[3]
  IC50: 177 µM

## CCOP(=O)(OCC)C(O)[C@@H]1CC(C(=O)NC)C/C=C/CCC(Cc2ccccc2)OC(=O)N[C@@H](CC(C)C)C(=O)N1 (stereo partly drawn) [Compound B27, Diethyl (((4S,7S,E)-15-benzyl-4-isobutyl-9-(methylcarbamoyl)-2,5-dioxo-1-oxa-3,6-diazacyclopentadec-11-en-7-yl)(hydroxy)methyl)phosphonate]
[1]; [7]
  IC50: 57.9 µM
[2]; [5]
  IC50: > 200 µM
[3]; [8]
  IC50: 57.9 µM
